Experiments:
[1] = biological target: T1, D(2) dopamine receptor (Rattus norvegicus, UniProt P61169); assay: Affinity constant of compound was evaluated in rat striatum tissue preparation.; type: tissue-based
[2] = biological target: T1, D(2) dopamine receptor; assay: Inhibitory constant against binding of [125I]- IBZM to rat striatal membrane; set-up: species or system Striatum

T1 sequence (P61169 whole entry): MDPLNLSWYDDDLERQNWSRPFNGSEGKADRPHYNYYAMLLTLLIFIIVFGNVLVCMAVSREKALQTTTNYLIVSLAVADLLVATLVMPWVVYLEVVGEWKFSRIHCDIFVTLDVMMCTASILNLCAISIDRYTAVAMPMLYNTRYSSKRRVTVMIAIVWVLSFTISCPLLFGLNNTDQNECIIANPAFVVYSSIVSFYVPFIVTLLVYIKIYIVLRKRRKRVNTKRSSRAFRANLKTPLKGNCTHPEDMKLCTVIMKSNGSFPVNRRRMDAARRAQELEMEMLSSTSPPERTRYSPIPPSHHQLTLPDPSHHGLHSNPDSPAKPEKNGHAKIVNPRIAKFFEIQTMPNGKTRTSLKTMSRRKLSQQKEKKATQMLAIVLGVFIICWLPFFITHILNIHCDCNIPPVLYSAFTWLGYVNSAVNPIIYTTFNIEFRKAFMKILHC

Row | Ki [1] | Ki [2] | Structure (SMILES)
1 | 0.43 nM |  | CCN1CCCC1CNC(=O)c1c(OC)ccc(I)c1O (stereo unspecified)
2 |  | 30.3 nM | CCN1CCC[C@@H]1CNC(=O)c1c(OC)ccc(I)c1O
3 | 31.1 nM | 31.1 nM | CCN1CCC[C@H]1CNC(=O)c1c(O)cccc1OC
4 |  | 0.633 nM | CCN1CCC[C@H]1CNC(=O)c1c(OC)ccc(I)c1O [IOLOPRIDE]
5 |  | 359 nM | O=C(c1ccc(F)cc1)C1CCN(CCn2c(=O)[nH]c3ccccc3c2=O)CC1 [KETANSERIN]
